# Assay results published in EP1077981B1, “NOVEL CEPHALOSPORIN COMPOUNDS, PROCESSES FOR PREPARATION THEREOF AND ANTIMICROBIAL COMPOSITIONS CONTAINING THE SAME” (LG CHEMICAL LIMITED, priority 1998, dated 1999).
# Where two headings read alike, the source gives them in different places.
# Test: Pharmacokinetic experiment (blood concentration by HPLC)
# Assay type: in vivo, mice
# Settings: male, mouse, blood, 20 mg/kg
# Procedure: Test example 2: Pharmacokinetic experiment
# Male mice, each of which has a body weight of […] were used in the present pharmacokinetic experiment. Test compounds were formulated into 1% of solution and then, the solution was administered by oral route and by injection with a dose of 20mg/kg, respectively. At the fixed interval of time after administration, blood was gathered from the mice. Concentrations of test compounds in blood were measured by HPLC quantitative analysis and based on the results, pharmacokinetic parameters were calculated.
# [1] = intravenous, Injection, read-out: average conc.
# [2] = intravenous, Injection, read-out: blood concentration, mouse-1
# [3] = intravenous, Injection, read-out: blood concentration, mouse-2
# [4] = other: injection, Injection, read-out: average conc.
# [5] = other: injection, Injection, read-out: blood concentration, mouse-1
# [6] = other: injection, Injection, read-out: blood concentration, mouse-2
# [7] = po, Oral administration, read-out: average conc.
# [8] = po, Oral administration, read-out: blood concentration, mouse-1
# [9] = po, Oral administration, read-out: blood concentration, mouse-2
# [10] = po, Oral administration, read-out: blood concentration, mouse-3
structure (smiles),measurement,setting,value
"CO/N=C(\C(=O)NC1C(=O)N2C(C(=O)O)=C(Sc3cc(N)nc(N)n3)CSC12)c1csc(N)n1 (stereo not drawn) [Compound No. 25, 7-[(Z)-2-(2-amino-thiazol-4-yl)-2-methoxyimino-acetylamino]-3-(2,6-diamino-pyrimidin-4-ylsulfanyl)-8-oxo-5-thia-1-azabicyclo[4,2,0]oct-2-ene-2-carboxylic acid]",concentration at 1 min,[1],96400 ng/mL
same,concentration at 1 min,[2],120000 ng/mL
same,concentration at 1 min,[3],72800 ng/mL
same,concentration at 5 min,[1],41200 ng/mL
same,concentration at 5 min,[2],51700 ng/mL
same,concentration at 5 min,[3],30700 ng/mL
same,concentration at 10 min,[1],29100 ng/mL
same,concentration at 10 min,[2],37700 ng/mL
same,concentration at 10 min,[3],20400 ng/mL
same,concentration at 120 min,[1],1800 ng/mL
same,concentration at 120 min,[2],2200 ng/mL
same,concentration at 120 min,[3],1300 ng/mL
same,concentration at 180 min,[1],800 ng/mL
same,concentration at 180 min,[2],1100 ng/mL
same,concentration at 180 min,[3],600 ng/mL
same,concentration at 240 min,[1],400 ng/mL
same,concentration at 240 min,[2],500 ng/mL
same,concentration at 240 min,[3],300 ng/mL
same,concentration at 20 min,[4],17100 ng/mL
same,concentration at 20 min,[5],21600 ng/mL
same,concentration at 20 min,[6],12700 ng/mL
same,concentration at 40 min,[4],9800 ng/mL
same,concentration at 40 min,[5],12200 ng/mL
same,concentration at 40 min,[6],7300 ng/mL
same,concentration at 60 min,[4],6100 ng/mL
same,concentration at 60 min,[5],7600 ng/mL
same,concentration at 60 min,[6],4600 ng/mL
same,concentration at 90 min,[4],3300 ng/mL
same,concentration at 90 min,[5],4300 ng/mL
same,concentration at 90 min,[6],2400 ng/mL
same,concentration at 5 min,[7],90 ng/mL
same,concentration at 5 min,[8],70 ng/mL
same,concentration at 5 min,[9],130 ng/mL
same,concentration at 5 min,[10],60 ng/mL
same,concentration at 10 min,[7],200 ng/mL
same,concentration at 10 min,[8],160 ng/mL
same,concentration at 10 min,[9],270 ng/mL
same,concentration at 10 min,[10],140 ng/mL
same,concentration at 20 min,[7],490 ng/mL
same,concentration at 20 min,[8],280 ng/mL
same,concentration at 20 min,[9],720 ng/mL
same,concentration at 20 min,[10],270 ng/mL
same,concentration at 40 min,[7],470 ng/mL
same,concentration at 40 min,[8],270 ng/mL
same,concentration at 40 min,[9],590 ng/mL
same,concentration at 40 min,[10],350 ng/mL
same,concentration at 60 min,[7],440 ng/mL
same,concentration at 60 min,[8],160 ng/mL
same,concentration at 60 min,[9],610 ng/mL
same,concentration at 60 min,[10],260 ng/mL
same,concentration at 90 min,[7],570 ng/mL
same,concentration at 90 min,[8],70 ng/mL
same,concentration at 90 min,[9],840 ng/mL
same,concentration at 90 min,[10],290 ng/mL
same,concentration at 120 min,[7],360 ng/mL
same,concentration at 120 min,[8],60 ng/mL
same,concentration at 120 min,[9],480 ng/mL
same,concentration at 120 min,[10],240 ng/mL
same,concentration at 180 min,[7],410 ng/mL
same,concentration at 180 min,[8],60 ng/mL
same,concentration at 180 min,[9],590 ng/mL
same,concentration at 180 min,[10],240 ng/mL
same,concentration at 240 min,[7],230 ng/mL
same,concentration at 240 min,[8],60 ng/mL
same,concentration at 240 min,[9],220 ng/mL
same,concentration at 240 min,[10],230 ng/mL
